Data reported in patent publication US8598339B2, “Withanolide isolated from Physalis longifolia and analogs and methods of use thereof” (University of Kansas, priority 2011, dated 2013).

Assays:
DRO81-1 cells = test: Annexin V/PI staining and flow cytometry, DRO81-1; assay type: cell-based; settings: 24-hour exposure
[1] = test system: DRO81-1 medullary thyroid cancer cells; test: PARP cleavage, DRO81-1; assay type: cell-based
[2] = test system: RET, mTOR, 4E-BP1, P70S6 kinase, akt, pERK in medullary thyroid cancer cells; test: Mechanistic pathway protein levels in medullary thyroid cancer cells; assay type: cell-based; settings: 24 hours; 0.5, 1, 3, and 6 μM
Procedure: Additional analysis of X005, X032 and X033 was carried out in medullary thyroid cancer cells. […] Therefore, this analysis indicates the importance of this double bond in the A-ring to anti-cancer activity.

[3] = In vitro metabolism, human liver microsomes; assay type: in vitro ADME; settings: 1.0E-06 M
Procedure: The in vitro metabolism of […], as compared to known reference compounds, was analyzed using liver microsomes from human, dog (Beagle), rat (Sprague-Dawley) and mouse (CD-1). […] Results are from two independent tests.

[4] = test system: Salmonella typhimurium TA98; test: Cytotoxicity in tester strain TA98 without S9; assay type: cell-based
[5] = test system: Salmonella typhimurium TA100; test: Cytotoxicity in tester strain TA100 without S9; assay type: cell-based
[6] = test system: Salmonella typhimurium TA1535; test: Cytotoxicity in tester strain TA1535 without S9; assay type: cell-based
MDA-MB-231 = test: MTS assay, MDA-MB-231; assay type: cell-based
Procedure: (§1) Cell proliferation was analyzed using MTS assay.

[7] = test system: HCC1937 (BRCA-1 mutant) cells; test: MTS assay, HCC1937; assay type: cell-based
Procedure: as §1

MRC5 = test: MTS assay, MRC5; assay type: cell-based; settings: MRC5 (normal)
Procedure: as §1

MDA-MB-231 cells [8] = test: Clonogenic assay, MDA-MB-231; assay type: cell-based; settings: 1-2 μM; treated 24 hours, cultured two weeks
BT20 cells = test: Cell cycle analysis, BT20; assay type: cell-based; settings: 2 μM; 24-hour treatment
MDA-MB-231 cells [9] = test: Annexin V-FITC/Propidium Iodide apoptosis, MDA-MB-231; assay type: cell-based
Source text: (§2) Therefore, this cell line was not very sensitive to X001 in this assay.

MCF-7 cells = test: Annexin V-FITC/Propidium Iodide apoptosis, MCF-7; assay type: cell-based; settings: 1-4 μM, 24 and 48 hours
Source text: as §2

[10] = test system: caspase-3, PARP, BRCA-1, HSF1, mutant p53, Notch1, Jagged1 in MDA-MB-231 cells; test: Western blot, MDA-MB-231; assay type: cell-based; settings: 24-hour or 48-hour treatment
Ames test strain TA98 = test: Ames test, TA98
Ames test strain TA100 = test: Ames test, TA100
Ames test strain TA1535 = test: Ames test, TA1535
[11] = test system: heat shock factor (HSF) / HSE-luciferase in Hs766T cells; test: HSE-luciferase reporter, Hs766T; assay type: cell-based; parameters: dose or concentration left out as unconfirmed; settings: heat shock 42° C. 30 minutes; recovery 8 hours
Procedure: To monitor the activation of heat shock factor (HSF) and heat shock-mediated signal transduction pathways, Hs766T cells were transfected with a HSE-luciferase construct, then treated with 3 mM of the selected withanolides for 8 hours. The cells were heat shocked at 42° C. for 30 minutes and allowed to recover at 37° C. for 8 hours. Cells were lysed and luciferase activity was measured on a plate reader.

[12] = test system: hsf1 and client proteins of Hsp90 in MIA PaCa-2 cells; test: Western blot, MIA PaCa-2; assay type: cell-based

## CC1=C(CO)C(=O)O[C@@H]([C@@H](C)C2CC[C@H]3[C@@H]4C[C@H]5O[C@]56[C@@H](O)C=CC(=O)[C@]6(CO)[C@H]4CC[C@]23C)C1 (some centres unmarked) [Compound X001]
DRO81-1 cells; 5 μM
  induction of apoptosis: apoptosis was induced
DRO81-1 cells; 10 μM
  cells gated toward late apoptosis: 65%
[1]
  cleavage of PARP starting at (concentration): 500 nM
[2]
  pERK levels: increased at higher concentrations
  total and phosphorylated protein levels of RET, mTOR, P706S kinase: down-regulated in a dose-dependent manner
[3]
  Mean % Parent Compound Remaining: 27%
[4]; 1.0E−04 M
  Cytotoxicity (% of Control): 98 % of Control
[4]; 1.0E−05 M
  Cytotoxicity (% of Control): 86 % of Control
[4]; 1.3E−06 M
  Cytotoxicity (% of Control): 89 % of Control
[4]; 2.5E−05 M
  Cytotoxicity (% of Control): 86 % of Control
[4]; 2.5E−06 M
  Cytotoxicity (% of Control): 87 % of Control
[4]; 5.0E−05 M
  Cytotoxicity (% of Control): 85 % of Control
[4]; 5.0E−06 M
  Cytotoxicity (% of Control): 86 % of Control
[4]; 6.3E−07 M
  Cytotoxicity (% of Control): 95 % of Control
[5]; 1.0E−04 M
  Cytotoxicity (% of Control): 107 % of Control
[5]; 1.0E−05 M
  Cytotoxicity (% of Control): 101 % of Control
[5]; 1.3E−06 M
  Cytotoxicity (% of Control): 96 % of Control
[5]; 2.5E−05 M
  Cytotoxicity (% of Control): 93 % of Control
[5]; 2.5E−06 M
  Cytotoxicity (% of Control): 101 % of Control
[5]; 5.0E−05 M
  Cytotoxicity (% of Control): 101 % of Control
[5]; 5.0E−06 M
  Cytotoxicity (% of Control): 103 % of Control
[5]; 6.3E−07 M
  Cytotoxicity (% of Control): 99 % of Control
[6]; 1.0E−04 M
  Cytotoxicity (% of Control): 111 % of Control
[6]; 1.0E−05 M
  Cytotoxicity (% of Control): 97 % of Control
[6]; 1.3E−06 M
  Cytotoxicity (% of Control): 99 % of Control
[6]; 2.5E−05 M
  Cytotoxicity (% of Control): 100 % of Control
[6]; 2.5E−06 M
  Cytotoxicity (% of Control): 97 % of Control
[6]; 5.0E−05 M
  Cytotoxicity (% of Control): 109 % of Control
[6]; 5.0E−06 M
  Cytotoxicity (% of Control): 98 % of Control
[6]; 6.3E−07 M
  Cytotoxicity (% of Control): 99 % of Control
MDA-MB-231
  Log ECF: 1.25
[7]
  Log ECF: 0.71
MRC5
  Log ECF: 4.59
MDA-MB-231 cells [8]
  colony formation: strongly inhibited
BT20 cells
  cell cycle effect: G2/M arrest
MDA-MB-231 cells [9]
  concentration needed to induce apoptosis: at least 4 μM
MCF-7 cells
  induction of apoptosis: did not induce apoptosis
[10]; 1, 2, 4, or 8 μM
  levels of BRCA-1, HSF1, mutant p53, Notch1 and Jagged1: decreased
[10]; tested 1, 2, 4, or 8 μM
  caspase-3 activation (concentration): 4 to 8 µM
Ames test strain TA98; 1.0E−04 M, TA98 +S9
  Positive Significance (− to +++): −
Ames test strain TA98; 1.0E−04 M, TA98 −S9
  Positive Significance (− to +++): −
Ames test strain TA98; 1.0E−05 M, TA98 +S9
  Positive Significance (− to +++): −
Ames test strain TA98; 1.0E−05 M, TA98 −S9
  Positive Significance (− to +++): −
Ames test strain TA98; 5.0E−05 M, TA98 +S9
  Positive Significance (− to +++): −
Ames test strain TA98; 5.0E−05 M, TA98 −S9
  Positive Significance (− to +++): −
Ames test strain TA98; 5.0E−06 M, TA98 +S9
  Positive Significance (− to +++): −
Ames test strain TA98; 5.0E−06 M, TA98 −S9
  Positive Significance (− to +++): −
Ames test strain TA100; 1.0E−04 M, TA100 +S9
  Positive Significance (− to +++): −
Ames test strain TA100; 1.0E−04 M, TA100 −S9
  Positive Significance (− to +++): −
Ames test strain TA100; 1.0E−05 M, TA100 +S9
  Positive Significance (− to +++): −
Ames test strain TA100; 1.0E−05 M, TA100 −S9
  Positive Significance (− to +++): −
Ames test strain TA100; 5.0E−05 M, TA100 +S9
  Positive Significance (− to +++): −
Ames test strain TA100; 5.0E−05 M, TA100 −S9
  Positive Significance (− to +++): −
Ames test strain TA100; 5.0E−06 M, TA100 +S9
  Positive Significance (− to +++): −
Ames test strain TA100; 5.0E−06 M, TA100 −S9
  Positive Significance (− to +++): −
Ames test strain TA1535; 1.0E−04 M, TA1535 +S9
  Positive Significance (− to +++): −
Ames test strain TA1535; 1.0E−04 M, TA1535 −S9
  Positive Significance (− to +++): −
Ames test strain TA1535; 1.0E−05 M, TA1535 +S9
  Positive Significance (− to +++): −
Ames test strain TA1535; 1.0E−05 M, TA1535 −S9
  Positive Significance (− to +++): −
Ames test strain TA1535; 5.0E−05 M, TA1535 +S9
  Positive Significance (− to +++): −
Ames test strain TA1535; 5.0E−05 M, TA1535 −S9
  Positive Significance (− to +++): −
Ames test strain TA1535; 5.0E−06 M, TA1535 +S9
  Positive Significance (− to +++): −
Ames test strain TA1535; 5.0E−06 M, TA1535 −S9
  Positive Significance (− to +++): −

## CC(=O)OCC1=C(C)C[C@H]([C@@H](C)C2CC[C@H]3[C@@H]4C[C@H]5O[C@]56[C@@H](OC(C)=O)C=CC(=O)[C@]6(COC(C)=O)[C@H]4CC[C@]23C)OC1=O (some centres unmarked) [Compound X003, 4,19,27-triacetyl X001]
[11]
  heat shock-induced increase in luciferase activity: substantially reduced
[12]
  stress and client protein response (western blot): induced oxidative and proteotoxic stress, while depleting hsf1 and client proteins of Hsp90
